According to ChEMBL document CHEMBL1781986, “Structure-activity relationships of pyrrole based S-nitrosoglutathione reductase inhibitors: pyrrole regioisomers and propionic acid replacement” (Bioorg Med Chem Lett, 2011):
Activity calls are given as the source filed them. The rule behind the calls is not given here.

How the values were obtained:
[1] = biological target: T1, Vasoactive intestinal polypeptide receptor 1 (Homo sapiens) (UniProt P32241); test: Inhibition of human recombinant VPAC1 receptor at 10 uM by radioligand binding assay
T1 sequence (whole entry): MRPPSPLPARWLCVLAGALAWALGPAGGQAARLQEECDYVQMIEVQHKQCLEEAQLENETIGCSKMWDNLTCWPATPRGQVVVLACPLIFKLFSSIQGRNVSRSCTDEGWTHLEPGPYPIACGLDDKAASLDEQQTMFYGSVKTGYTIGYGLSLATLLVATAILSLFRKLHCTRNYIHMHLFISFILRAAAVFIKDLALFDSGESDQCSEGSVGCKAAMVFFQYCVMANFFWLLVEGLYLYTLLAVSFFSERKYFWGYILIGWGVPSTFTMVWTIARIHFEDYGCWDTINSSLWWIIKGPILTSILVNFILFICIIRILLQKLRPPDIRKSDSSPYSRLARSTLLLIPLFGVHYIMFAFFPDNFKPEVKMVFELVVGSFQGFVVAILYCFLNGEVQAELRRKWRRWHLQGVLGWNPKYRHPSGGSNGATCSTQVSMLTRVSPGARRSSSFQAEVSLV

[2] = biological target: 5-hydroxytryptamine receptor 1B (Homo sapiens) (UniProt P28222); test: Inhibition of human recombinant 5HT1B receptor at 10 uM by radioligand binding assay
[3] = biological target: T2, Muscarinic acetylcholine receptor M1 (Homo sapiens) (UniProt P11229); test: Inhibition of human recombinant M1 receptor at 10 uM by radioligand binding assay
T2 sequence (whole entry): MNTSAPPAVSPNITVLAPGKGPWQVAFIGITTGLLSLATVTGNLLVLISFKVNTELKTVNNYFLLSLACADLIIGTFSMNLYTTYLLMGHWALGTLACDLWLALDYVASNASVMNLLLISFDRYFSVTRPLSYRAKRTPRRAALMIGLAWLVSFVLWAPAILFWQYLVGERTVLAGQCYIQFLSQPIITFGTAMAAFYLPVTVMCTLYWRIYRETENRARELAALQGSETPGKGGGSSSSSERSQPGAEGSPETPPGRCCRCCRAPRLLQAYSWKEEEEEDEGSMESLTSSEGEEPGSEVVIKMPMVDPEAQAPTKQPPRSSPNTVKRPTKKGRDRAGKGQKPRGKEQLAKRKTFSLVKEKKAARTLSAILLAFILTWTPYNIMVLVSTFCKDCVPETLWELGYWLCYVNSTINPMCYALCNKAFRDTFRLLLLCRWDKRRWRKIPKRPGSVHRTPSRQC

[4] = biological target: T3, Substance-K receptor (Homo sapiens) (UniProt P21452); test: Inhibition of human recombinant NK2 receptor at 10 uM by radioligand binding assay
T3 sequence (whole entry): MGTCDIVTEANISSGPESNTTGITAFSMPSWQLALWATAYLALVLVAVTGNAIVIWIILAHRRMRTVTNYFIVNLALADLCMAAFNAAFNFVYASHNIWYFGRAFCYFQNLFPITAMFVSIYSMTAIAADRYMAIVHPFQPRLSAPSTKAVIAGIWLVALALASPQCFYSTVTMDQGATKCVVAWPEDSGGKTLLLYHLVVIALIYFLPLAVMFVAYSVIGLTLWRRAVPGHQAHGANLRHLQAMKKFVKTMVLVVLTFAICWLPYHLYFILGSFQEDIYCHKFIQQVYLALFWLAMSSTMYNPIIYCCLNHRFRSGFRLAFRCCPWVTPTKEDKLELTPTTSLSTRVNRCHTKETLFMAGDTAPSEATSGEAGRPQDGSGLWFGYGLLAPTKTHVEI

[5] = biological target: D(2) dopamine receptor (Homo sapiens) (UniProt P14416); test: Inhibition of human recombinant D2S receptor at 10 uM by radioligand binding assay
[6] = biological target: Adenosine receptor A2a (Homo sapiens) (UniProt P29274); test: Inhibition of human recombinant A2a receptor at 10 uM by radioligand binding assay
[7] = biological target: T4, 5-hydroxytryptamine receptor 3A (Homo sapiens) (UniProt P46098); test: Inhibition of human recombinant 5HT3 receptor at 10 uM by radioligand binding assay
T4 sequence (whole entry): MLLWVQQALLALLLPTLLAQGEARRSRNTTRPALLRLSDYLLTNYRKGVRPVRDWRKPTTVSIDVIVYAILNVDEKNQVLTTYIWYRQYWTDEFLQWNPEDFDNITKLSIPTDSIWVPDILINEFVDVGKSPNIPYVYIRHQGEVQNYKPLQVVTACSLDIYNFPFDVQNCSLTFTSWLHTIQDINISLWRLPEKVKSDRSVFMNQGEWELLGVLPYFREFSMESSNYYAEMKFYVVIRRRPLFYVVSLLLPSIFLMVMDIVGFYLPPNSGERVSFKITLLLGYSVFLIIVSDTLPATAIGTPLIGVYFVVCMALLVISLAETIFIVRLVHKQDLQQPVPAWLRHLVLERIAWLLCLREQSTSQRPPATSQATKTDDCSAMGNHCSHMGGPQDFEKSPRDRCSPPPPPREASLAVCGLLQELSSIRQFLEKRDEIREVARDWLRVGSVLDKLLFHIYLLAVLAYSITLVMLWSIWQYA

[8] = biological target: T5, Adenosine receptor A3 (Homo sapiens) (UniProt P0DMS8); test: Inhibition of human recombinant A3 receptor at 10 uM by radioligand binding assay
T5 sequence (whole entry): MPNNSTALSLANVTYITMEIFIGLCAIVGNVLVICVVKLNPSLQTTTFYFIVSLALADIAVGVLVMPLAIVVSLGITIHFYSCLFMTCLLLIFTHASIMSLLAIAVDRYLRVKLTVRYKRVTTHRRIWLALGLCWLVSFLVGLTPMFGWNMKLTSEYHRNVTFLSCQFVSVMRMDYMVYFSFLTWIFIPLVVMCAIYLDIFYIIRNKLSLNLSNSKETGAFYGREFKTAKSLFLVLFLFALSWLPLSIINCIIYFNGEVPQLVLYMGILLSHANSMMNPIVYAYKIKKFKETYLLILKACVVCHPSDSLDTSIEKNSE

[9] = biological target: T6, B2 bradykinin receptor (Homo sapiens) (UniProt P30411); test: Inhibition of human recombinant B2 bradykinin receptor at 10 uM by radioligand binding assay
T6 sequence (whole entry): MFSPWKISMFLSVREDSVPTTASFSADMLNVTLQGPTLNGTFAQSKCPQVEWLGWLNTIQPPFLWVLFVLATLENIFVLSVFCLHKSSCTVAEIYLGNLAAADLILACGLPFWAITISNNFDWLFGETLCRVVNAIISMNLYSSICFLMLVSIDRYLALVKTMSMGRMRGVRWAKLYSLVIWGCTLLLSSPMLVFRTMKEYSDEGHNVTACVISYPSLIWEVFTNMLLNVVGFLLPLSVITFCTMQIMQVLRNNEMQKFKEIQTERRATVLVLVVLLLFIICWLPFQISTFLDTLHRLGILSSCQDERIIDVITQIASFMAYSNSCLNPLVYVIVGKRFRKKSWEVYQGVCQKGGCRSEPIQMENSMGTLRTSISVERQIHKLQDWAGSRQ

[10] = biological target: 5-hydroxytryptamine receptor 5A (Homo sapiens) (UniProt P47898); test: Inhibition of human recombinant 5HT5A receptor at 10 uM by radioligand binding assay
Sequence of 5-hydroxytryptamine receptor 5A (Homo sapiens) (P47898 whole entry): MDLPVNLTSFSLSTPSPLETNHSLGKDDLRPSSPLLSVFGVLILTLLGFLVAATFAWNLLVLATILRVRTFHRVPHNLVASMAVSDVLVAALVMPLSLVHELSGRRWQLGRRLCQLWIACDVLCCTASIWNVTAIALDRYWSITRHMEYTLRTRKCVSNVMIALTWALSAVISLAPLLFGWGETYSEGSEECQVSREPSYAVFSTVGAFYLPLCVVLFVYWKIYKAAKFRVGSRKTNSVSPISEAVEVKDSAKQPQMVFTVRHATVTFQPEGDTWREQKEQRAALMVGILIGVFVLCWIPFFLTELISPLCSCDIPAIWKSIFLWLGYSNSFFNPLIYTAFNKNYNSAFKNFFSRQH

Sequence of Adenosine receptor A2a (Homo sapiens) (P29274 whole entry): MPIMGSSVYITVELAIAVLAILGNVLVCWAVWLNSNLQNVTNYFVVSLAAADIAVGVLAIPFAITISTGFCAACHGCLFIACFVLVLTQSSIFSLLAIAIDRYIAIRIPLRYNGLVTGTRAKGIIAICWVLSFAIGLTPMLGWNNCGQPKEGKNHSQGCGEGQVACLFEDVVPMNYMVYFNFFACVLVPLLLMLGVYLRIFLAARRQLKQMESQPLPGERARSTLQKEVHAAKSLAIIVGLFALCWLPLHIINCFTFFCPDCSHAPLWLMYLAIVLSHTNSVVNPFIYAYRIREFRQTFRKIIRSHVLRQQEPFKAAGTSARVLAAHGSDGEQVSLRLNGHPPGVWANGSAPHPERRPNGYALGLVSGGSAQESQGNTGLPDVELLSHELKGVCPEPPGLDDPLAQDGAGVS
Sequence of 5-hydroxytryptamine receptor 1B (Homo sapiens) (P28222 whole entry): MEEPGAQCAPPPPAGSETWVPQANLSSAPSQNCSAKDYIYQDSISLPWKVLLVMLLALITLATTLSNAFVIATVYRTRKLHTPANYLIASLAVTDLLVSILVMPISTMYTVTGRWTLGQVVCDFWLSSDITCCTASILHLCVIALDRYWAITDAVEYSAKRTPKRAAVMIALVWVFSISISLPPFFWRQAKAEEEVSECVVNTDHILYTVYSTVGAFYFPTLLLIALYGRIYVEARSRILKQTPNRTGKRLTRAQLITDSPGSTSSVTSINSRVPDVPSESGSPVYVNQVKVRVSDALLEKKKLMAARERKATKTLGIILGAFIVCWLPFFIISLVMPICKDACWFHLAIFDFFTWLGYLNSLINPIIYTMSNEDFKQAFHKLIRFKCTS
Sequence of D(2) dopamine receptor (Homo sapiens) (P14416 whole entry): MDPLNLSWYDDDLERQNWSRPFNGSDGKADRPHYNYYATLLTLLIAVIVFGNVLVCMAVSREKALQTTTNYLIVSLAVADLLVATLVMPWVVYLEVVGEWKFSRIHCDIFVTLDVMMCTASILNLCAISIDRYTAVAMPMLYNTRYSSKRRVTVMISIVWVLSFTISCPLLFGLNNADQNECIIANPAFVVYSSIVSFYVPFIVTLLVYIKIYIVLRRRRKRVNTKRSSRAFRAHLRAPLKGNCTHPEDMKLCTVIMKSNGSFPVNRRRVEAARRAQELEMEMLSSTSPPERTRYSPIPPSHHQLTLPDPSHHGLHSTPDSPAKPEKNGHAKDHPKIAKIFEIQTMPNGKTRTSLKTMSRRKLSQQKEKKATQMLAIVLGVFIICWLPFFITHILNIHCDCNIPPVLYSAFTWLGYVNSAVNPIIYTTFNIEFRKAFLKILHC

inhibition [1]	inhibition [2]	inhibition [3]	inhibition [4]	inhibition [5]	inhibition [6]	inhibition [7]	inhibition [8]	inhibition [9]	inhibition [10]	Structure (SMILES)
inactive	inactive	inactive	inactive	inactive	inactive	inactive	inactive	inactive	inactive	Cc1cc(C(N)=O)ccc1-c1c(-c2ccc(-n3ccnc3)cc2)ccn1CCC(=O)O
inactive	inactive	inactive	inactive	inactive	inactive	inactive	inactive	inactive	inactive	Cc1cc(C(N)=O)ccc1-n1c(CCC(=O)O)ccc1-c1ccc(-n2ccnc2)cc1 [N6022]
Active	Active	Active	Active	Active	Active	Active	Active	Active	Active	COc1ccc(-c2ccn(-c3ccc(C(=O)O)c(O)c3)c2-c2ccc(C(N)=O)cc2C)cc1
inactive	inactive	inactive	inactive	inactive	inactive	inactive	inactive	inactive	inactive	Cc1cc(C(N)=O)ccc1-c1c(CCC(=O)O)ccn1-c1ccc(-n2ccnc2)cc1
Active	Active	Active	Active	Active	Active	Active	Active	Active	Active	COc1ccc(-c2ccn(-c3ccc(O)c([N+](=O)[O-])c3)c2-c2ccc(C(N)=O)cc2C)cc1
